According to ChEMBL document CHEMBL4507310, “Data for DCP probe A-1211212” (2021):

Tests used:
[1] = biological target: T1, Alpha-2A adrenergic receptor (Homo sapiens) (UniProt P08913); experiment: Alpha2A (h) Eurofins-Cerep binding assay; parameters: ligand concentration 1 nM; details: filed as antagonist, Compound concentration 10.0 uM
T1 sequence (whole entry): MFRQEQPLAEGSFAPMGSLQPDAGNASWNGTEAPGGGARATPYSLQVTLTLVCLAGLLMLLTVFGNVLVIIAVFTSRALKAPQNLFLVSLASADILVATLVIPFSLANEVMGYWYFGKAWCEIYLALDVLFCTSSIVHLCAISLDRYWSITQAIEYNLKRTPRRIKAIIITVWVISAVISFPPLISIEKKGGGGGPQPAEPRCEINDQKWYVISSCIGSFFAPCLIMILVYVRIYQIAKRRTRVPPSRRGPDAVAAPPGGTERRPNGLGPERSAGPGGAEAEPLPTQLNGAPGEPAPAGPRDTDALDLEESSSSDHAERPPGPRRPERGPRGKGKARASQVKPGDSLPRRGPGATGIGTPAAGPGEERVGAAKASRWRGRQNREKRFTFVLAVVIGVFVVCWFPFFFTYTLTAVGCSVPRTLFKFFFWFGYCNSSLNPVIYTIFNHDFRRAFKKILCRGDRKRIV

[2] = biological target: Cholecystokinin receptor type A (Homo sapiens) (UniProt P32238); experiment: CCK1 (CCKA) (h) Eurofins-Cerep binding assay; parameters: ligand concentration 0.08 nM; details: filed as agonist, Compound concentration 10.0 uM
Chain of Cholecystokinin receptor type A (Homo sapiens) (P32238 whole entry): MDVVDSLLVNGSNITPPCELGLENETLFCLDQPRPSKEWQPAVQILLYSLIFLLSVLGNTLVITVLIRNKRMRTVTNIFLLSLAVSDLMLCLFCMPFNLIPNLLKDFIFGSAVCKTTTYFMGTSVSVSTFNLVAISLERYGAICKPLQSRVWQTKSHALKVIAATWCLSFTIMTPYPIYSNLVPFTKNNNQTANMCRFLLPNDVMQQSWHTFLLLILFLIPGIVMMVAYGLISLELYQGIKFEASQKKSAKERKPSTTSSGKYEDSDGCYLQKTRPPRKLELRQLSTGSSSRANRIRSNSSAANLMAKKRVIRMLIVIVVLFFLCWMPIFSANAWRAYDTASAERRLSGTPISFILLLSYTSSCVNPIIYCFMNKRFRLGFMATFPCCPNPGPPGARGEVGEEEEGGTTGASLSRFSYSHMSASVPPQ

[3] = biological target: Tumor necrosis factor (Homo sapiens) (UniProt P01375); experiment: TNF-alpha (h) Eurofins-Cerep binding assay; parameters: ligand concentration 0.1 nM; details: filed as agonist, Compound concentration 10.0 uM
[4] = biological target: Mu-type opioid receptor (Homo sapiens) (UniProt P35372); experiment: mu (MOP) (h) Eurofins-Cerep binding assay; parameters: ligand concentration 0.5 nM; details: filed as agonist, Compound concentration 10.0 uM
Chain of Mu-type opioid receptor (Homo sapiens) (P35372 whole entry): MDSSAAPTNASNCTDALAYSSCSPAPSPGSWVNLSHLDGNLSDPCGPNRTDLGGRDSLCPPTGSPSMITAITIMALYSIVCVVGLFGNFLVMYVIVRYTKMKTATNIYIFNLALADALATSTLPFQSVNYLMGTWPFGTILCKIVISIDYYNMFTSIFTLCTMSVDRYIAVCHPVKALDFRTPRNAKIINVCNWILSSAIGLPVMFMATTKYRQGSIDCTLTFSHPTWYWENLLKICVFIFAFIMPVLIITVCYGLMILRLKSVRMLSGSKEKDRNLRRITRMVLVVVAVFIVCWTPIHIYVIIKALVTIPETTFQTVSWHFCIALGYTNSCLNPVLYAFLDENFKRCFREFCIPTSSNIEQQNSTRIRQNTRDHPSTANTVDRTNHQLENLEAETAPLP

[5] = biological target: L-type Ca2+ channel (diltiazem site, benzothiazepines) (Rattus norvegicus, UniProt P22002+P27732+Q02485); experiment: Ca2+ channel (L, diltiazem site) (benzothiazepines) Eurofins-Cerep binding assay; assay type: protein assay; parameters: incubation time 120 min, incubation temperature RT, ligand concentration 15 nM; details: rat cerebral cortex, probe [3H]diltiazem (15 nM), compound concentration 10 uM, read-out: % Inhibition of Control Specific Binding (Mean n=2)
[6] = biological target: Sulfonylurea receptors; K-ATP channels (Rattus norvegicus) (UniProt Q63563+P70673+Q63664+Q09429); experiment: KATP channel Eurofins-Cerep binding assay; assay type: protein-complex assay; parameters: ligand concentration 0.1 nM; details: filed as antagonist, Compound concentration 10.0 uM
[7] = tested on: Tyrosine-protein kinase ABL1 (Homo sapiens), P00519 [F317L]; details: Compound concentration 1000.0 nM
[8] = tested on: Tyrosine-protein kinase ABL1 (Homo sapiens), P00519 [H396P]; details: Compound concentration 1000.0 nM
[9] = biological target: Activin receptor type-1B (Homo sapiens) (UniProt P36896); details: Compound concentration 1000.0 nM
Chain of Activin receptor type-1B (Homo sapiens) (P36896 whole entry): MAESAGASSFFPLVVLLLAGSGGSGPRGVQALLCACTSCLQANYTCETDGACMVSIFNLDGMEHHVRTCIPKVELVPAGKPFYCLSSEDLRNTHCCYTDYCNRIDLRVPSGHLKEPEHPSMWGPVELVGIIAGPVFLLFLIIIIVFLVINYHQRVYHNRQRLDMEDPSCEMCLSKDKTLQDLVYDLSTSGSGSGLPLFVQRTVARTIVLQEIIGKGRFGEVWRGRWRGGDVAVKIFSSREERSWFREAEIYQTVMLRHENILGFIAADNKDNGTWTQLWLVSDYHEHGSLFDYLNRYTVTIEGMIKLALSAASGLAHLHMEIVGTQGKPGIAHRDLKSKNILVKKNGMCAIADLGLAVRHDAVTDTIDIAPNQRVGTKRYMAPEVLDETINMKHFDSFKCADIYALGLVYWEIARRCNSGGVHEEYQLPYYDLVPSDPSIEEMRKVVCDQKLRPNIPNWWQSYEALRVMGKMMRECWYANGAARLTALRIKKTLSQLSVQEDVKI

[10] = biological target: Cyclin-dependent kinase 7 (Homo sapiens) (UniProt P50613); details: Compound concentration 1000.0 nM
[11] = biological target: Death-associated protein kinase 3 (Homo sapiens) (UniProt O43293); details: Compound concentration 1000.0 nM
[12] = biological target: Discoidin domain-containing receptor 2 (Homo sapiens) (UniProt Q16832); details: Compound concentration 1000.0 nM
[13] = biological target: Epidermal growth factor receptor (Homo sapiens) (UniProt P00533); details: Compound concentration 1000.0 nM
[14] = tested on: Epidermal growth factor receptor (Homo sapiens), P00533 [L858R,T790M]; details: Compound concentration 1000.0 nM
[15] = biological target: Ephrin type-A receptor 7 (Homo sapiens) (UniProt Q15375); details: Compound concentration 1000.0 nM
[16] = tested on: Receptor-type tyrosine-protein kinase FLT3 (Homo sapiens), P36888 [UNDEFINED MUTATION]; details: Compound concentration 1000.0 nM
[17] = biological target: Tyrosine-protein kinase JAK3 (Homo sapiens) (UniProt P52333); details: Compound concentration 1000.0 nM
Chain of Tyrosine-protein kinase JAK3 (Homo sapiens) (P52333 whole entry): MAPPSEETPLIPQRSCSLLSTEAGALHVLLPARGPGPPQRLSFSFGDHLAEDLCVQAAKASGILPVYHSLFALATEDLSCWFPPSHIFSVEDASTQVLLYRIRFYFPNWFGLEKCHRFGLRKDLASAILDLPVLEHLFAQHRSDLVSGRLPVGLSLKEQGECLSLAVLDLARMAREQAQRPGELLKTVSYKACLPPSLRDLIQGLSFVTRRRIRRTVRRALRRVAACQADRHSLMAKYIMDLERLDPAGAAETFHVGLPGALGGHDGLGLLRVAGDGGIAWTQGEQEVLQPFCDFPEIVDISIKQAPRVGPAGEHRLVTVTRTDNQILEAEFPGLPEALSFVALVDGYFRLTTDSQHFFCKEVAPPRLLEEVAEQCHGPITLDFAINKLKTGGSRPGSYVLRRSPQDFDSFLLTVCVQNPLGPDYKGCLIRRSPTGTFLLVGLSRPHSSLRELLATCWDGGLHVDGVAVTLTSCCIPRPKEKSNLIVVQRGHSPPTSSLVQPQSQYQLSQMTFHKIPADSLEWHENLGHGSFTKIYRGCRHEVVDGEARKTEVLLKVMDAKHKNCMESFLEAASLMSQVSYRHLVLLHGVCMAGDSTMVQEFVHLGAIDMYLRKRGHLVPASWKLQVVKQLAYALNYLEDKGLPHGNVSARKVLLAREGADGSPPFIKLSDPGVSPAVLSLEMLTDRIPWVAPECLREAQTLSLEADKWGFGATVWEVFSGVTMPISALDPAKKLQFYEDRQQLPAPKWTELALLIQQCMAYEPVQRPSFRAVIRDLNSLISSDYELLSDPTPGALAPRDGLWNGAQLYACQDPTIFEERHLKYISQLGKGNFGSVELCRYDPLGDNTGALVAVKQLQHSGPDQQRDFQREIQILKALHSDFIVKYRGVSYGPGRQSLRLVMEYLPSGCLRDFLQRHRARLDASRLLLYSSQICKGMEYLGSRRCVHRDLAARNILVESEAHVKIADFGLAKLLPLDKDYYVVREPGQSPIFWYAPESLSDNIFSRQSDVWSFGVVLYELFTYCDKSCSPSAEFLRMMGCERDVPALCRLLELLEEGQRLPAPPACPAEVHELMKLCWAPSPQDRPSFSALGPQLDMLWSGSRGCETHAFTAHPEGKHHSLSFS

[18] = biological target: Serine/threonine-protein kinase LATS1 (Homo sapiens) (UniProt O95835); details: Compound concentration 1000.0 nM
[19] = biological target: Dual specificity mitogen-activated protein kinase kinase 4 (Homo sapiens) (UniProt P45985); details: Compound concentration 1000.0 nM
[20] = tested on: Hepatocyte growth factor receptor (Homo sapiens), P08581 [M1250T]; details: Compound concentration 1000.0 nM
[21] = biological target: MAP kinase-interacting serine/threonine-protein kinase 1 (Homo sapiens) (UniProt Q9BUB5); details: Compound concentration 1000.0 nM
Chain of MAP kinase-interacting serine/threonine-protein kinase 1 (Homo sapiens) (Q9BUB5 whole entry, looked up): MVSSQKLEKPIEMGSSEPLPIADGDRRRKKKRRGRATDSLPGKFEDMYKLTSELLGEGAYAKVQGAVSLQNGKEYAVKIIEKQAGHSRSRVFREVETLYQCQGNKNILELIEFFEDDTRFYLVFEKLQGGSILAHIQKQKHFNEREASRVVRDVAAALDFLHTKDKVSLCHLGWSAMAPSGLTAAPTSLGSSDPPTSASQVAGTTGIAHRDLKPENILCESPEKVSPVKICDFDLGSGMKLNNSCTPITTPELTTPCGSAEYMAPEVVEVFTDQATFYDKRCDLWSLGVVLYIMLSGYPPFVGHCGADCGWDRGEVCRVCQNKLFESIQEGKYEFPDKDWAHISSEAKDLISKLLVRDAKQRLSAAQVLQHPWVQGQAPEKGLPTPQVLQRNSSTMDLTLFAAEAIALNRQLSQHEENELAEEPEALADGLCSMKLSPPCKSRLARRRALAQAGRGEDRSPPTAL

[22] = biological target: Mitogen-activated protein kinase kinase kinase 11 (Homo sapiens) (UniProt Q16584); details: Compound concentration 1000.0 nM
[23] = biological target: Serine/threonine-protein kinase 3 (Homo sapiens) (UniProt Q13188); details: Compound concentration 1000.0 nM
[24] = biological target: Serine/threonine-protein kinase Nek7 (Homo sapiens) (UniProt Q8TDX7); details: Compound concentration 1000.0 nM
Chain of Serine/threonine-protein kinase Nek7 (Homo sapiens) (Q8TDX7 whole entry, looked up): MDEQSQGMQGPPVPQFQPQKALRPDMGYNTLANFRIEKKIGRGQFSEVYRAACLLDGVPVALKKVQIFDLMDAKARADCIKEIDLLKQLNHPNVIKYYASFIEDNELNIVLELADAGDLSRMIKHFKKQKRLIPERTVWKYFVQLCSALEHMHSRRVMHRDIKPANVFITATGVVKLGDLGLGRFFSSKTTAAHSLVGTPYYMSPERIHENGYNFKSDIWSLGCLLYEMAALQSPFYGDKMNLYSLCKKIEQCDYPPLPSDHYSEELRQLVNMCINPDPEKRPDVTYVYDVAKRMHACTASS

[25] = biological target: Protein kinase C epsilon type (Homo sapiens) (UniProt Q02156); details: Compound concentration 1000.0 nM
[26] = biological target: Protein kinase C iota type (Homo sapiens) (UniProt P41743); details: Compound concentration 1000.0 nM
[27] = biological target: Interferon-induced, double-stranded RNA-activated protein kinase (Homo sapiens) (UniProt P19525); details: Compound concentration 1000.0 nM
Chain of Interferon-induced, double-stranded RNA-activated protein kinase (Homo sapiens) (P19525 whole entry): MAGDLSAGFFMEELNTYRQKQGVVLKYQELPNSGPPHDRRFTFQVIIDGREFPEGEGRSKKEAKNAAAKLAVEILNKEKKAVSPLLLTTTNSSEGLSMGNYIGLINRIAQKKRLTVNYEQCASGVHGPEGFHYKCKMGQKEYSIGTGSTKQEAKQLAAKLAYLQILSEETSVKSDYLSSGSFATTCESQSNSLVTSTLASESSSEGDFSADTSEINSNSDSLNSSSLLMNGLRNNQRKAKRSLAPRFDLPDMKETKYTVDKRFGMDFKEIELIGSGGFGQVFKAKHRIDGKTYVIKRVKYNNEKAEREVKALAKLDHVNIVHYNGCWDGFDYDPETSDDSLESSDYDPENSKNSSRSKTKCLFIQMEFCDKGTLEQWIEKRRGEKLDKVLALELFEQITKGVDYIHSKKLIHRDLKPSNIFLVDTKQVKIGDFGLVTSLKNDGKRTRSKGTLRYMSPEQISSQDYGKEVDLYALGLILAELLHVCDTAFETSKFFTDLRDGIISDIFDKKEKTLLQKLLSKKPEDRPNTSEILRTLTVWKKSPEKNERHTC

[28] = tested on: Proto-oncogene tyrosine-protein kinase receptor Ret (Homo sapiens), P07949 [M918T]; details: Compound concentration 1000.0 nM
[29] = biological target: Ribosomal protein S6 kinase alpha-5 (Homo sapiens) (UniProt O75582); details: Compound concentration 1000.0 nM
[30] = biological target: Ribosomal protein S6 kinase alpha-6 (Homo sapiens) (UniProt Q9UK32); details: Compound concentration 1000.0 nM
Chain of Ribosomal protein S6 kinase alpha-6 (Homo sapiens) (Q9UK32 whole entry): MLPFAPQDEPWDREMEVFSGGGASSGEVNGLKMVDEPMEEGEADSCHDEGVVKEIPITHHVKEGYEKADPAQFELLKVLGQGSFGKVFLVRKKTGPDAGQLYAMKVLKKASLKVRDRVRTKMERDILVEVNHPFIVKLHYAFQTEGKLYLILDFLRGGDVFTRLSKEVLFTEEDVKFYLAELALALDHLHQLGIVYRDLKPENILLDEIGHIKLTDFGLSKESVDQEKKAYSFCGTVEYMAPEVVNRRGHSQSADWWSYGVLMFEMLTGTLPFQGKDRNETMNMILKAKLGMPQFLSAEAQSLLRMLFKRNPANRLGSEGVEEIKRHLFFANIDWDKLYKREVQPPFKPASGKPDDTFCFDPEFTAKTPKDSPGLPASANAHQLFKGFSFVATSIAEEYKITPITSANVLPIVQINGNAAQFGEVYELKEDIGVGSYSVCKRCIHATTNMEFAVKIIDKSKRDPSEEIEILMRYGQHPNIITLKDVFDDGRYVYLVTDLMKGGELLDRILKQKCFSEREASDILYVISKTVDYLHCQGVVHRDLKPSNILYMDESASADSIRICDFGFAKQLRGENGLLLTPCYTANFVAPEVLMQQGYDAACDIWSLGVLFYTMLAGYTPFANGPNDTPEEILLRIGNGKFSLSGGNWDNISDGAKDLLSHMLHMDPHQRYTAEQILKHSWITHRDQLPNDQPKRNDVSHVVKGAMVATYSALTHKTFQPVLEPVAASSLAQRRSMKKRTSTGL

[31] = biological target: Ribosomal protein S6 kinase alpha-6 (Homo sapiens) (UniProt Q9UK32); details: Compound concentration 1000.0 nM; remark: listed apart in the source
[32] = biological target: Serine/threonine-protein kinase Sgk2 (Homo sapiens) (UniProt Q9HBY8); details: Compound concentration 1000.0 nM
[33] = biological target: Tyrosine-protein kinase Srms (Homo sapiens) (UniProt Q9H3Y6); details: Compound concentration 1000.0 nM
Chain of Tyrosine-protein kinase Srms (Homo sapiens) (Q9H3Y6 whole entry): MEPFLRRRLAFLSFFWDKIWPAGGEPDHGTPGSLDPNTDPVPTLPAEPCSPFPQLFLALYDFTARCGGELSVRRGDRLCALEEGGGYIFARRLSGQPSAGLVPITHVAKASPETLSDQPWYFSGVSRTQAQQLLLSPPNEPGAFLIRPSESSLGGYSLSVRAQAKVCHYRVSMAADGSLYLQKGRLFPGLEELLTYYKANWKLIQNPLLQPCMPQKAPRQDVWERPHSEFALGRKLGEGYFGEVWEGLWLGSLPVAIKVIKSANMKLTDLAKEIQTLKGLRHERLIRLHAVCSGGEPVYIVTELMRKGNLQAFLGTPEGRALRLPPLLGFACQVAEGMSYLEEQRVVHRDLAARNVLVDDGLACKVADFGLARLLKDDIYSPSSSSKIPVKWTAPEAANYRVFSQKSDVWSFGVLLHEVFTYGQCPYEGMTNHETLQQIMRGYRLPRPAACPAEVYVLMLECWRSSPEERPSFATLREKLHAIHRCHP

[34] = biological target: Serine/threonine-protein kinase TAO1 (Homo sapiens) (UniProt Q7L7X3); details: Compound concentration 1000.0 nM
[35] = biological target: Serine/threonine-protein kinase TAO2 (Homo sapiens) (UniProt Q9UL54); details: Compound concentration 1000.0 nM
[36] = biological target: Serine/threonine-protein kinase WNK4 (Homo sapiens) (UniProt Q96J92); details: Compound concentration 1000.0 nM
[37] = biological target: 5-hydroxytryptamine receptor 1B (Homo sapiens) (UniProt P28222); details: Compound concentration 10.0 uM

Compound	% Inhibition of Control Specific Binding (Mean n=2) [1] [%]	% Inhibition of Control Specific Binding (Mean n=2) [2] [%]	% Inhibition of Control Specific Binding (Mean n=2) [3] [%]	% Inhibition of Control Specific Binding (Mean n=2) [4] [%]	inhibition at 120 min, 10 µM [5] [%]	% Inhibition of Control Specific Binding (Mean n=2) [6] [%]	residual activity [7] [%]	residual activity [8] [%]	residual activity [9] [%]	residual activity [10] [%]	residual activity [11] [%]	residual activity [12] [%]	residual activity [13] [%]	residual activity [14] [%]	residual activity [15] [%]	residual activity [16] [%]	residual activity [17] [%]	residual activity [18] [%]	residual activity [19] [%]	residual activity [20] [%]	other results
O=C(NS(=O)(=O)c1ccc(NCC2CCOCC2)c([N+](=O)[O-])c1)c1ccc(N2CCN(Cc3ccc(C(F)(F)F)cc3-c3ccc(Cl)cc3)CC2)cc1Oc1cnc2[nH]ccc2c1 [A-1210227]	-5.2	-44.1	-42	2.8	-124	9.9	100	92	59	96	91	90	84	75	88	66	85	100	100	86	residual activity [21]: 99%; residual activity [22]: 91%; residual activity [23]: 100%; residual activity [24]: 97%; residual activity [25]: 100%; residual activity [26]: 100%; residual activity [27]: 94%; residual activity [28]: 100%; residual activity [29]: 95%; residual activity [30]: 100%; residual activity [31]: 100%; residual activity [32]: 100%; residual activity [33]: 79%; residual activity [34]: 87%; residual activity [35]: 82%; residual activity [36]: 71%; inhibition [37]: -6.15%
CO[C@H]1CC[C@H](CNc2ccc(S(=O)(=O)NC(=O)c3ccc(N4CCN(CC5=C(c6ccc(Cl)cc6)CC(C)(C)CC5)CC4)cc3Oc3cnc4[nH]ccc4c3)cc2[N+](=O)[O-])CC1 [A-1211212]	-11.2	1.6	-20.3	12.9	-6.2	9.7	83	94	67	100	68	100	62	98	87	88	84	87	98	96	residual activity [21]: 90%; residual activity [22]: 74%; residual activity [23]: 85%; residual activity [24]: 82%; residual activity [25]: 79%; residual activity [26]: 79%; residual activity [27]: 90%; residual activity [28]: 85%; residual activity [29]: 90%; residual activity [30]: 67%; residual activity [31]: 81%; residual activity [32]: 91%; residual activity [33]: 89%; residual activity [34]: 88%; residual activity [35]: 86%; residual activity [36]: 67%; inhibition [37]: 6.23%
